Laboratory results reported in PubChem BioAssay AID504927 (NMMLSC, 2011).
Several values for one entry are separate records, joined by “and”; a condition that tells them apart may be missing. Identical values can stand only once. Activity calls are given as the source filed them.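 Rule for the calls: active = EC50 below 10 microM from an accepted curve fit, fit percent over 10, EC50 error under a fifth; inactive = the rest.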

tested on: not listed separately; assay: inhibitors of superoxide in aged yeast, dose response, additional hits, confirmation (AID 504927); settings: S. cerevisiae aged culture, superoxide DHE fluorescence, 7 d; at 33.1 µM (top of the series)

| SMILES | percent response (superoxide), lower = inhibition |
| --- | --- |
| c1ccc2nc3ccccc3nc2c1 | 88.6% (inactive) |
| COc1ccc2c3c(cccc13)N(C)N=C2C | 78.1% (inactive) |
| CCN(CC)C(=O)CSc1nnc(-c2cccc(OC)c2)o1 | 108% (inactive) |
| CC(=O)O[C@H]1CCC2C3CC[C@H]4[C@@H](O)[C@H](O)CC[C@]4(C)C3CC[C@@]21C (stereo partly drawn) | 93.3% (inactive) |
| NC(=O)CSc1nnc(-c2ccc([N+](=O)[O-])cc2)o1 | 99.1% (inactive) |
| Cc1ccc(-c2nn(C(C)(C)C)c3ncnc(N)c23)cc1 | 44.3% (inactive) |
| C[C@]12CCC3C(CC[C@H]4C[C@@H](O)CC[C@]34C)[C@H]1CC[C@H]2O (stereo partly drawn) | 113% (inactive) |
| CCC(=Nc1ccccc1O)C1=C(O)CC(c2ccccc2)CC1=O (stereo not drawn) | 87.9% (inactive) |
| CN(C)CCNc1ncnc2c1cnn2-c1ccc(Cl)cc1 | 97.4% (inactive) |
| CCn1c2ccccc2c2n[nH]c(=S)nc21 | 94.7% (inactive) |
| CC(C)CSc1nnc2c3ccccc3n(C)c2n1 | 105% (inactive) |
| N#CC(c1nc2ccccc2nc1N1CCCC1)S(=O)(=O)c1ccccc1 (stereo not drawn) | 128% (inactive) |
| Cc1cc2nc3ccc(N(C)C)cc3nc2cc1N | 82.4% (inactive) |
| COc1ccc2c(c1)c1nnc(SC)nc1n2C | 54.2% (inactive) |
| CC(C)OC(=O)CSc1nnc(-c2ccc(Cl)cc2Cl)o1 | 128% (inactive) |
| N#CCc1nn(-c2ccccc2)c2ncnc(N)c12 | 95.5% (inactive) |
| O=c1[nH]c(O)c(C=Nc2ccc(F)c(Cl)c2)c(=O)[nH]1 | 97.1% (inactive) |
| COc1ccc2nc3cccc(OC)c3nc2c1 | 79.2% (inactive) |
| FC(F)(F)c1nc2cc3nc4ccccc4[nH]c3cc2n1 | 72.2% (inactive) |
| CNC(=O)c1cccc2nc3ccccc3nc12 | 52% (inactive) |
| Cc1cc(C)c2[nH]c3nc(SCC(=O)O)nnc3c2c1 | 111% (inactive) |

| SMILES | percent response (superoxide), lower = inhibition |
| --- | --- |
| O=C(CN1CCN(c2ccccn2)CC1)Nc1ccccc1F | 108% (inactive) |
| C=CCOn1c(=O)c(-c2cccs2)[n+]([O-])c2ccccc21 | 83.4% (inactive) |
| C#C[C@]1(O)[C@H](O)CC2C3CC[C@H]4C[C@@H](O)CC[C@]4(C)C3CC[C@@]21C (stereo partly drawn) | 117% (inactive) |
| CC(C)(C)Nc1ncnc2c1cnn2-c1ccccc1 | 110% (inactive) |
| COc1cccc2nc3cc(C)c(C)cc3nc12 | 78.3% (inactive) |
| CCCCCNC(=O)C(=O)C1C(=O)Nc2ccccc21 (stereo not drawn) | 86.1% (inactive) |
| CCc1nc(NC(C)(C)C)c2cnn(-c3ccccc3)c2n1 | 119% (inactive) |
| CC(=O)[C@@]1(O)CCC2C3CC[C@H]4C[C@@H](O)CC[C@]4(C)C3CC[C@@]21C (stereo partly drawn) | 107% (inactive) |
| Cc1ccccc1NC(=O)c1cccc2nc3ccccc3nc12 | 104% (inactive) |
| O=C(Nc1ccc2nc3ccccc3nc2c1)c1ccc(Br)cc1 | 104% (inactive) |
| O=C(/C=C/c1cccs1)NC(=S)NNC(=O)Cc1cccs1 | 132% (inactive) |
| Cn1c(O)c(C(=Nc2ccc(F)cc2)c2ccccc2Cl)c(=O)n(C)c1=O | 113% (inactive) |
| COc1ccc2nc3ccccc3[n+]([O-])c2c1 | 107% (inactive) |
| Cc1cc(C)cc(NC(=O)CN2CCN(c3ccccn3)CC2)c1 | 95.7% (inactive) |
| COc1ccc2cc(C3CC(c4ccco4)=NN3S(=O)(=O)c3ccccc3)c(Cl)nc2c1 (stereo not drawn) | 110% (inactive) |
| C[C@]12CCC3C(CC[C@H]4C[C@@H](O)CC[C@]34C)C1CC[C@@H]2OC(=O)[C@H](N)CCCCN (stereo partly drawn) | 96.2% (inactive) |
| C=C1C(O)[C@@H]2O[C@]3(CC[C@H](/C=C/C(C)[C@@H]4CC(C)=CC5(O[C@H](C[C@@](C)(O)C(=O)O)CCC5O)O4)O3)CC[C@H]2O[C@@H]1C(O)CC(C)[C@H]1OC2(CCCCO2)CCC1C (stereo partly drawn) | 84% (inactive) |
| C=CCSc1nnc(-c2ccc([N+](=O)[O-])cc2)o1 | 63.5% (inactive) |
| Oc1cccc2nc3ccccc3nc12 | 129% (inactive) |
| O=C(/C=C/c1ccccc1)NC(=S)NNC(=O)Cc1cccs1 | 78.9% (inactive) |

tested on: S. cerevisiae aged culture, superoxide DHE fluorescence, 7 d; assay: as above; settings: not given

| SMILES | EC50 |
| --- | --- |
| Nc1cc2nc3ccccc3nc2cc1N | 3500 nM |
| O=C(Nc1cccc(Cl)c1)Nc1ccc2nccnc2c1 | 510 nM |
| O=C(O)c1cnc2ccccc2n1 | 13400 nM (inactive) |
| CNc1ccc2nc3ccccc3[n+](C)c2c1 | 2110 nM |
| [O-][n+]1c2ccccc2[n+]([O-])c2cc(O)ccc21 | 1110 nM |
| OCC[n+]1c2ccccc2nc2ccc(N3CCOCC3)cc21 | 2610 nM |
| C/C(=N\Nc1ncnc2sc(C)c(C)c12)c1ccccn1 | 10400 nM (inactive) |
| CCN(CC)C(=O)c1ccc2nc3ccccc3nc2c1 | 790 nM |
| CSc1nnc2c3cc(F)ccc3n(C)c2n1 | 5860 nM |
| Cc1cccc2nc3ccccc3nc12 | 2720 nM |
| CC(C)(C)n1nc(-c2ccc(Cl)cc2)c2c(N)ncnc21 | 4230 nM |
| C[C@]12CCC3C(CC[C@H]4C[C@H](O)CC[C@]34C)C1CCC2=O (stereo partly drawn) | 30 nM |
| CC(C)(C)n1nc(-c2ccc(F)cc2)c2c(N)ncnc21 | 2440 nM |
| COc1ccc2nc3ccccc3nc2c1 | 370 nM and 850 nM |
| CSc1nnc(-c2ccc([N+](=O)[O-])cc2)o1 | 13100 nM (inactive) |
| O=C(c1cccc2nc3ccccc3nc12)N1CCOCC1 | 1750 nM |

| SMILES | EC50 |
| --- | --- |
| c1ccc2[nH]c3cc4ncnc4cc3nc2c1 | 130 nM |
| C[C@@]12C(=O)OC(=O)[C@]1(C)C1CCC2O1 | 180 nM |
| O=C(OCc1c(F)cccc1Cl)c1cnc2ccccc2n1 | 5980 nM |
| CCN(CC)C(=O)c1cccc2nc3ccccc3nc12 | 1520 nM |
| C[n+]1c2ccccc2nc2ccc(NCCO)cc21 | 4520 nM |
| O=C(Nc1ccc2nc3ccccc3nc2c1)c1ccccc1 | 80 nM |
| C#CCSc1nnc(-c2ccc([N+](=O)[O-])cc2)o1 | 5160 nM |
| CCN(CC)c1ccc2nc3ccc(N)cc3[n+](-c3ccccc3)c2c1 | 2310 nM |
| COc1ccc2nc3ccccc3nc2c1NC(=O)c1ccccc1Cl | 60 nM |
| CC(=O)Nc1ccc2nc3ccccc3nc2c1 | 170 nM |
| Cn1c(=O)[nH]c2nncnc2c1=O | 3400 nM |
| COc1ccc2nc3ccccc3nc2c1N | 1130 nM |
| C[C@]12CCC3C(CC[C@H]4C[C@H](O)CC[C@]34C)C1C[C@@H](CCCCl)[C@@H]2O (stereo partly drawn) | 530 nM |
| O=C1c2c(O)ccc(O)c2C(=O)c2c(NCCNCCO)ccc(NCCNCCO)c21 | 6580 nM |
| COC(=O)c1cccc2nc3c(C(C)O)cccc3nc12 (stereo not drawn) | 910 nM |
| CC(C)OC(=O)c1ccc2nc3ccccc3nc2c1 | 12600 nM (inactive) |
